The values below come from patent US11912703B2, “6-azaindole compounds” (BRISTOL-MYERS SQUIBB COMPANY, priority 2017, dated 2024).

The target in assay [1] is human TLR8 (Homo sapiens (Human), UniProt Q9NR97). The assay is described as follows: TLR8 inhibition reporter assay (HEK-Blue SEAP).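 Note: SEAP driven by IFN-β minimal promoter with five NF-κB and AP-1 sites, compounds tested 0.05 nM to 50 µM, 22 h incubation, inhibition relative to agonist plus DMSO wells.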 In general terms: A reporter such as luciferase makes a cellular process visible.
Chain of human TLR8 (Q9NR97 27-1041): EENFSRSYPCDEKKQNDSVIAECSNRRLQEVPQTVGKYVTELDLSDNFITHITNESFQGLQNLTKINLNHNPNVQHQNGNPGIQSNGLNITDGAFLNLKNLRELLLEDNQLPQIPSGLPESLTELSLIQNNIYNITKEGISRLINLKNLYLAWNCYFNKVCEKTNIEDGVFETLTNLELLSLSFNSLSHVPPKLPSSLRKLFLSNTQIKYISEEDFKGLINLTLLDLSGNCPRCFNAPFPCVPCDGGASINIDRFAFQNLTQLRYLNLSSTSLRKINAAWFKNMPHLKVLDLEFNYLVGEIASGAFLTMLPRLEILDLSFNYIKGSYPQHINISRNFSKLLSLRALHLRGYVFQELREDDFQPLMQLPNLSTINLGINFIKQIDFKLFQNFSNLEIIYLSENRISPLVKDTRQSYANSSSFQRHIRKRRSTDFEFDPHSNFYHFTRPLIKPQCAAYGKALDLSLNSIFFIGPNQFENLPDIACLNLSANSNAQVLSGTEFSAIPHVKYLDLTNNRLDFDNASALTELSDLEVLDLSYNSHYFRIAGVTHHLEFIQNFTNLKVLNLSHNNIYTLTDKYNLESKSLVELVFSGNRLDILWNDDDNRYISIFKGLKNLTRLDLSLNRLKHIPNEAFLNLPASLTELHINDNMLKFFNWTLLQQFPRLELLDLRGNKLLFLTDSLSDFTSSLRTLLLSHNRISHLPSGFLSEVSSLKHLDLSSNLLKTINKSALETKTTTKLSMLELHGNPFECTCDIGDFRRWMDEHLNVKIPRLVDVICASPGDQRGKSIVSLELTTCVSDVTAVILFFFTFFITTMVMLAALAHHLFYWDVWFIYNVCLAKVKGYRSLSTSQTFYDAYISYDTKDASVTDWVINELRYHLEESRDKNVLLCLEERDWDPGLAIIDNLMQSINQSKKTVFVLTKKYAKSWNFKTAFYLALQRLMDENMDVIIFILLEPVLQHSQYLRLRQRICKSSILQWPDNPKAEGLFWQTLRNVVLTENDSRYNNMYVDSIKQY
In assay [2] the target is human TLR9 (Homo sapiens (Human), UniProt Q9NR96). The assay is described as follows: TLR9 inhibition reporter assay (HEK-Blue SEAP).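 Note: SEAP driven by IFN-β minimal promoter carrying five NF-κB and AP-1 sites, 22 h at 37 °C, compounds 0.05 nM–50 µM, inhibition scaled between agonist-plus-DMSO and reference-inhibitor wells.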
Chain of human TLR9 (Q9NR96 26-1032): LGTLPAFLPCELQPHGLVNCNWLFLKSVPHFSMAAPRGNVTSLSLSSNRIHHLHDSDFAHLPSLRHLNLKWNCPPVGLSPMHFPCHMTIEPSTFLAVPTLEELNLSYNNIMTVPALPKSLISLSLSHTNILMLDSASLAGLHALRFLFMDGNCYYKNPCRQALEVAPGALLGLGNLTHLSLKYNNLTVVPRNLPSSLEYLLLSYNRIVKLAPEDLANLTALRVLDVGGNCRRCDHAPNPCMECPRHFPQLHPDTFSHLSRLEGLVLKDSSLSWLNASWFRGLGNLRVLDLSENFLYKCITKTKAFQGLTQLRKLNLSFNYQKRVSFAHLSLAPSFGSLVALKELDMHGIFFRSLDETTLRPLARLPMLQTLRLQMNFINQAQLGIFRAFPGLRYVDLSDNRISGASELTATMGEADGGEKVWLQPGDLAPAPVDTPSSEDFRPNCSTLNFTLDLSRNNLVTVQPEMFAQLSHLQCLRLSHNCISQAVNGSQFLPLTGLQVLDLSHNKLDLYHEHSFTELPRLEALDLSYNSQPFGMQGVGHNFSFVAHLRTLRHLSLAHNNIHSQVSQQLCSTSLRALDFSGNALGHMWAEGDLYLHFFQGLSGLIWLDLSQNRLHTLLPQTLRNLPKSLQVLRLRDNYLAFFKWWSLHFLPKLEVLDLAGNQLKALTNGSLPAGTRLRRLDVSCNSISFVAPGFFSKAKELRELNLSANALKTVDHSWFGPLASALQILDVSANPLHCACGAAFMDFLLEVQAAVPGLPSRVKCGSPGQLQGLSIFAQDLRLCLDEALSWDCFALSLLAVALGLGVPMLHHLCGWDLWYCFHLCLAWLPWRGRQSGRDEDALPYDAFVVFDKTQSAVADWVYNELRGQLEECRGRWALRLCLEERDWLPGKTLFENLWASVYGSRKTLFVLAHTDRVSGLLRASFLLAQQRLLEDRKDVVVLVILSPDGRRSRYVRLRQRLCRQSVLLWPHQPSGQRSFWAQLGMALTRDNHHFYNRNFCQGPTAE
Procedure: HEK-Blue™-cells (Invivogen) overexpressing human TLR7, TLR8 or TLR9 receptors were used for screening inhibitors of these receptors using an inducible SEAP (secreted embryonic alkaline phosphatase) reporter gene under the control of the IFN-β minimal promoter fused to five NF-κB and AP-1-binding sites. Briefly, cells are seeded into Greiner 384 well plates (15000 cells per well for TLR7, 20,000 for TLR8 and 25,000 for TLR9) and then treated with test compounds in DMSO to yield a final dose response concentration range of 0.05 nM-50 μM. After a 30 minute compound pre-treatment at room temperature, the cells are then stimulated with a TLR7 ligand (gardiquimod at a final concentration of 7.5 μM), TLR8 ligand (R848 at a final concentration of 15.9 μM) or TLR9 ligand (ODN2006 at a final concentration of 5 nM) to activate NF-κB and AP-1 which induce the production of SEAP. After a 22 hour incubation at 37° C., 500 CO2, SEAP levels are determined with the addition of HEK-Blue™ Detection reagent (Invivogen), a cell culture medium that allows for detection of SEAP, according to manufacturer's specifications.
Assay [3] addresses human TLR7 (Homo sapiens (Human), UniProt Q9NYK1). The assay is described as follows: TLR7 inhibition reporter assay (HEK-Blue SEAP). Format: cell-based. As to conditions: HEK-Blue cells overexpressing human TLR7, gardiquimod 7.5 μM stimulation.
The mark [4] stands for this setting: read-out: TLR8 IC50; HEK-Blue cells overexpressing human TLR8, R848 15.9 μM stimulation, SEAP reporter.
Where [5] appears, read: read-out: TLR9 IC50; HEK-Blue cells overexpressing human TLR9, ODN2006 5 nM stimulation, SEAP reporter.
The mark [6] stands for this setting: read-out: TLR8 IC50; HEK-Blue cells overexpressing human TLR8; R848 15.9 μM stimulation; SEAP reporter.
[7] abbreviates: read-out: TLR9 IC50; HEK-Blue cells overexpressing human TLR9; ODN2006 5 nM stimulation; SEAP reporter.

Like-named read-outs stand apart in the source and are kept apart here.

Chain of human TLR7 (Q9NYK1 27-1049): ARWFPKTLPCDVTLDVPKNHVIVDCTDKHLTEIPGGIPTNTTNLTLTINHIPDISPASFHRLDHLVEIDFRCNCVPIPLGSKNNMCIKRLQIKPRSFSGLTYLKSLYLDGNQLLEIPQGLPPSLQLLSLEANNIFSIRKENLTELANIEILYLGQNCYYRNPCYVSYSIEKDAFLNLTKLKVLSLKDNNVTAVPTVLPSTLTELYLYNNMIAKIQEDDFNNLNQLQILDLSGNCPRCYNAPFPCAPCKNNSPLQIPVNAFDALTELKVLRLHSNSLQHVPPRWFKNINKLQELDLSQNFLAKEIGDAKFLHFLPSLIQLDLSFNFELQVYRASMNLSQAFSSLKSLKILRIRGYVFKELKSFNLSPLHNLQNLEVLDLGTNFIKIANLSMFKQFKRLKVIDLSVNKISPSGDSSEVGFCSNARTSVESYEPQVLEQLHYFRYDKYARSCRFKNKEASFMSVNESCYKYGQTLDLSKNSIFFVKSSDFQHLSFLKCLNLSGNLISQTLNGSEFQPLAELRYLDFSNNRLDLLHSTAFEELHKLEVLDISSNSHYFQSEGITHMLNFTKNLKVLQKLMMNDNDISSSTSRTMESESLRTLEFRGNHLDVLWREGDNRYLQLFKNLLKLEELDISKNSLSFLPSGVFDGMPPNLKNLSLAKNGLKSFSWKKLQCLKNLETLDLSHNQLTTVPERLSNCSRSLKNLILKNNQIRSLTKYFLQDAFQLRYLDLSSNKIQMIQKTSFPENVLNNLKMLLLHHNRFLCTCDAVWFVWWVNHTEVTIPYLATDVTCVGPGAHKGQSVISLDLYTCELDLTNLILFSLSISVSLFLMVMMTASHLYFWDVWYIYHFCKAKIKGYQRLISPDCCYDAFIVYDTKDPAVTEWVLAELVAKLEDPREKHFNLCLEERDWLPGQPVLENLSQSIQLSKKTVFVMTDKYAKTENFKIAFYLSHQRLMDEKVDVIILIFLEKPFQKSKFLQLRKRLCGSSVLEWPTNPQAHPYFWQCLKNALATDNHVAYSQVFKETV

What is called IC50 is the point on the concentration scale where inhibition reaches its midpoint. Turning to `COc1cc(-c2[nH]c3cnc(C4CCC(N5CC6(COC6)C5)C4)cc3c2C(C)C)cn2ncnc12` (centres unmarked) [Example 208], the values for the IC50 in assay [1] (setting [4]), in assay [2] (setting [5]) and in assay [3] were 0.016 µM, 0.276 µM and 0.012 µM, respectively.
For `COc1cc(-c2[nH]c3cnc(C4CCC(N5CC6(COC6)C5)C4)cc3c2C(C)C)cn2ncnc12` (centres unmarked) [Example 209] the same measures were 0.097 µM, 1.08 µM and 0.029 µM.
For `COc1cc(-c2[nH]c3cnc(C4CCC(NCC(C)(C)C)C4)cc3c2C(C)C)cn2ncnc12` (centres unmarked) [Example 210] the same measures were 0.0066 µM, 1.08 µM and 0.034 µM.
As to `COc1cc(-c2[nH]c3cnc(C4CCC(NCC(C)(C)OC)C4)cc3c2C(C)C)cn2ncnc12` (centres unmarked) [Example 211], the values for the concentration for half-maximal inhibition (IC50) in assay [1] (setting [4]), in assay [2] (setting [5]) and in assay [3] were 0.044 µM, 2.25 µM and 0.041 µM, respectively.
For `Cc1cc(-c2[nH]c3cnc(C4CCN(C(C)C)CC4)c(F)c3c2C(C)C)cn2ncnc12` [Example 212], in that order: 0.0038 µM, 2.08 µM and 0.0016 µM.
For `COc1cc(-c2[nH]c3cnc(N4CCNCC4)c(C)c3c2C(C)C)cn2ncnc12` [Example 213, 6-(3-isopropyl-4-methyl-5-(piperazin-1-yl)-1H-pyrrolo [2,3-c]pyridin-2-yl)-8-methoxy-[1,2,4]triazolo[1,5-a]pyridine], in that order: 0.003 µM, 0.517 µM and 0.0015 µM.
For `CNCC(=O)N1CCC(c2ncc3[nH]c(-c4cc(C)nc(C)c4)c(C(C)C)c3c2F)CC1` [Example 214] the same measures were 0.016 µM, 2.07 µM and 0.0075 µM.
Take `Cc1cc(-c2[nH]c3cnc(C4CCN(CC5(C)COC5)CC4)c(F)c3c2C(C)C)cc(C)n1` [Example 215]: the figures for the IC50 in assay [1] (setting [6]), in assay [2] (setting [7]) and in assay [3] were 0.0037 µM, 2 µM and 0.0042 µM, respectively.
For `COCCN1CCC(c2ncc3[nH]c(-c4cc(C)nc(C)c4)c(C(C)C)c3c2F)CC1` [Example 216] the same measures were 0.012 µM, 4.65 µM and 0.014 µM.
For `COc1cc(-c2[nH]c3cnc(C4CCN(C5CCOCC5)CC4)c(F)c3c2C(C)C)cn2ncnc12` [Example 217] the same measures were 0.0044 µM, 7.6 µM and 0.0034 µM.
For `COc1cc(-c2[nH]c3cnc(N4CCC(N(C)C)CC4)c(F)c3c2C(C)C)cn2ncnc12` [Example 218] the same measures were 0.0006 µM, 4.74 µM and 0.00082 µM.
Take `Cc1cc(-c2[nH]c3cnc(N4CCC(NC(C)C)CC4)c(F)c3c2C(C)C)cn2ncnc12` [Example 219]: the IC50 in assay [1] (setting [6]) came out at 0.00056 µM; in assay [2] (setting [7]), 1.89 µM; in assay [3] it was 0.00085 µM.
Take `Cc1cc(-c2[nH]c3cnc(N4CCC(NC5CCOCC5)CC4)c(F)c3c2C(C)C)cn2ncnc12` [Example 220]: the results for the half-inhibitory concentration (IC50) in assay [1] (setting [6]), in assay [2] (setting [7]) and in assay [3] were 0.00035 µM, 4.54 µM and 0.00074 µM, respectively.
Consider `CNC(=O)CN(C)C1CCN(c2ncc3[nH]c(-c4cc(OC)c5ncnn5c4)c(C(C)C)c3c2F)CC1` [Example 221], for which the figures for the IC50 in assay [1] (setting [6]), in assay [2] (setting [7]) and in assay [3] were 0.0007 µM, 2.57 µM and 0.0011 µM, respectively.
For `COc1cc(-c2[nH]c3cnc(N4CCC(N(C)CC(N)=O)CC4)c(F)c3c2C(C)C)cn2ncnc12` [Example 222], in that order: 0.0027 µM, 5.77 µM and 0.0032 µM.
For `COc1cc(-c2[nH]c3cnc(C4CCC(NC5COC5)CC4)c(F)c3c2C(C)C)cn2ncnc12` (centres unmarked) [Example 223] the same measures were 0.0024 µM, 1.11 µM and 0.0027 µM.
For `COc1cc(-c2[nH]c3cnc(C4CCC(NC5COC5)CC4)c(F)c3c2C(C)C)cn2ncnc12` (centres unmarked) [Example 224], in that order: 0.00062 µM, 0.679 µM and 0.0004 µM.
As to `COc1cc(-c2[nH]c3cnc(C4CCC(NCC5(C)COC5)CC4)c(F)c3c2C(C)C)cn2ncnc12` (centres unmarked) [Example 225], the IC50 in assay [1] (setting [6]) was determined as 0.0014 µM; in assay [2] (setting [7]), 4.7 µM; in assay [3], 0.004 µM.
For `COc1cc(-c2[nH]c3cnc(C4CCC(N5CC6(COC6)C5)CC4)c(F)c3c2C(C)C)cn2ncnc12` (centres unmarked) [Example 226] the same measures were 0.00073 µM, 1.29 µM and 0.00051 µM.
For `COc1cc(-c2[nH]c3cnc(C4CCC(N(C)C(C)C)CC4)c(F)c3c2C(C)C)cn2ncnc12` (centres unmarked) [Example 227], in that order: 0.0026 µM, 4.32 µM and 0.0019 µM.
For `CCN(C)C1CCC(c2ncc3[nH]c(-c4cc(OC)c5ncnn5c4)c(C(C)C)c3c2F)CC1` (centres unmarked) [Example 228] the same measures were 0.0026 µM, 0.812 µM and 0.0015 µM.
In the case of `COc1cc(-c2[nH]c3cnc(C4CCC(NCC(C)(C)C)CC4)c(F)c3c2C(C)C)cn2ncnc12` (centres unmarked) [Example 229], the figures for the half-maximal inhibitory concentration (IC50) in assay [1] (setting [6]), in assay [2] (setting [7]) and in assay [3] were 0.0042 µM, 1.46 µM and 0.0087 µM, respectively.
For `Cc1cc(-c2[nH]c3cnc(C4CCC(NC(C)C)CC4)c(F)c3c2C(C)C)cn2ncnc12` (centres unmarked) [Example 230] the same measures were 0.00077 µM, 1.7 µM and 0.00041 µM.
For `Cc1cc(-c2[nH]c3cnc(C4CCC(NC5(C)COC5)CC4)c(F)c3c2C(C)C)cn2ncnc12` (centres unmarked) [Example 231] the same measures were 0.0066 µM, 4.17 µM and 0.0059 µM.
As to `Cc1c(-c2[nH]c3cnc(C4CCC(NC5CCOCC5)CC4)c(F)c3c2C(C)C)cn2ncnc2c1C` (centres unmarked) [Example 232], the IC50 in assay [1] (setting [6]) came out at 0.0032 µM; in assay [2] (setting [7]), 4.5 µM; in assay [3] it was 0.011 µM.
As for `Cc1c(-c2[nH]c3cnc(C4CCC(N5CCC5)CC4)c(F)c3c2C(C)C)cn2ncnc2c1C` (centres unmarked) [Example 233], the IC50 was determined as 0.0036 µM in assay [1] (setting [6]), 1.16 µM in assay [2] (setting [7]) and 0.0027 µM in assay [3].
As for `Cc1c(-c2[nH]c3cnc(C4CCC(NCC(C)(C)C)CC4)c(F)c3c2C(C)C)cn2ncnc2c1C` (centres unmarked) [Example 234], the IC50 in assay [1] (setting [4]) stood at 0.0026 µM; in assay [1] (setting [6]) it was 0.0026 µM; in assay [2] (setting [5]), 0.733 µM; in assay [2] (setting [7]), 0.733 µM; in assay [3], 0.013 µM.
For `CCN(C)C1CCN(c2ncc3[nH]c(-c4cc(C)c5ncnn5c4)c(C(C)C)c3c2C)CC1` [Example 235], the IC50 was found to be 0.001 µM in assay [1] (setting [4]); 0.001 µM in assay [1] (setting [6]); 2.21 µM in assay [2] (setting [5]); 2.21 µM in assay [2] (setting [7]); 0.00024 µM in assay [3].
For the compound `Cc1c(N2CCC(NC(C)C)CC2)ncc2[nH]c(-c3cc(C)c4ncnn4c3)c(C(C)C)c12` [Example 236], the IC50 stood at 0.0011 µM in assay [1] (setting [4]); 0.0011 µM in assay [1] (setting [6]); 0.939 µM in assay [2] (setting [5]); 0.939 µM in assay [2] (setting [7]); 0.00066 µM in assay [3].
Take `Cc1c(-c2[nH]c3cnc(N4CCC(NC5COC5)CC4)c(C)c3c2C(C)C)cn2ncnc2c1C` [Example 237]: the IC50 in assay [1] (setting [4]) was 0.00095 µM; in assay [1] (setting [6]), 0.00095 µM; in assay [2] (setting [5]), 2.07 µM; in assay [2] (setting [7]), 2.07 µM; in assay [3], 0.0016 µM.
For `Cc1c(-c2[nH]c3cnc(C4CCC(NC56CC(C5)C6)CC4)c(F)c3c2C(C)C)cn2ncnc2c1C` (centres unmarked) [Example 238], the 50% inhibitory concentration (IC50) is 0.021 µM in assay [1] (setting [4]), 28.5 µM in assay [2] (setting [5]) and 0.062 µM in assay [3].
For `Cc1c(-c2[nH]c3cnc(C4CCC(NC56CC(C5)C6)CC4)c(F)c3c2C(C)C)cn2ncnc2c1C` (centres unmarked) [Example 239], in that order: 0.0026 µM, 15.9 µM and 0.0026 µM.
For `Cc1c(-c2[nH]c3cnc(C4CCC(NC[C@@H](F)C(C)(C)O)CC4)c(F)c3c2C(C)C)cn2ncnc2c1C` (some centres unmarked) [Example 240], in that order: 0.00039 µM, 2.78 µM and 0.00096 µM.
For `COc1cc(-c2[nH]c3cnc(C4CCC(NC5CCOCC5)CC4)c(C)c3c2C(C)C)cn2ncnc12` (centres unmarked) [Example 241] the same measures were 0.011 µM, 0.285 µM and 0.0035 µM.
Regarding `COc1cc(-c2[nH]c3cnc(C4CCC(NC5COC5)CC4)c(C)c3c2C(C)C)cn2ncnc12` (centres unmarked) [Example 242], the results for the IC50 in assay [1] (setting [4]), in assay [2] (setting [5]) and in assay [3] were 0.014 µM, 0.401 µM and 0.011 µM, respectively.
In the case of `COc1cc(-c2[nH]c3cnc(C4CCC(NC5COC5)CC4)c(C)c3c2C(C)C)cn2ncnc12` (centres unmarked) [Example 243], the results for the IC50 in assay [1] (setting [4]), in assay [2] (setting [5]) and in assay [3] were 0.0048 µM, 0.43 µM and 0.00079 µM, respectively.
Regarding `COc1cc(-c2[nH]c3cnc(C4CCC(NCC(C)(C)F)CC4)c(C)c3c2C(C)C)cn2ncnc12` (centres unmarked) [Example 244], the results for the IC50 in assay [1] (setting [4]), in assay [2] (setting [5]) and in assay [3] were 0.016 µM, 0.583 µM and 0.0089 µM, respectively.
For `COc1cc(-c2[nH]c3cnc(C4CCC(N5CC6(COC6)C5)CC4)c(C)c3c2C(C)C)cn2ncnc12` (centres unmarked) [Example 245] the same measures were 0.047 µM, 0.257 µM and 0.0063 µM.
Take `COc1cc(-c2[nH]c3cnc(C4CCC(N5CC6(COC6)C5)CC4)c(C)c3c2C(C)C)cn2ncnc12` (centres unmarked) [Example 246]: the IC50 was found to be 0.017 µM in assay [1] (setting [4]), 0.705 µM in assay [2] (setting [5]) and 0.002 µM in assay [3].
For `Cc1c(-c2[nH]c3cnc(C4CCC(NCC(C)(C)C)CC4)c(C)c3c2C(C)C)cn2ncnc2c1C` (centres unmarked) [Example 247] the same measures were 0.01 µM, 0.718 µM and 0.016 µM.
